± gives the expanded uncertainty stated by the source.
How the values were obtained:
[1] = molar heat capacity at constant pressure; settings: 101 kPa, Liquid, Large sample (1 g) DSC
[2] = molar heat capacity at constant pressure; xn = mol fraction of the nth substance listed; settings: 101 kPa, Liquid, Large sample (1 g) DSC

CCCCCCn1cc[n+](C)c1.F[B-](F)(F)F [1-hexyl-3-methylimidazolium tetrafluoroborate]
[1]
Settings	molar heat capacity at constant pressure [J/K/mol]
283.15 K	423.2 ± 6.6
288.15 K	425.8 ± 6.6
293.15 K	428.4 ± 6.6
298.15 K	431 ± 6.7
303.15 K	433.6 ± 6.7
308.15 K	436.2 ± 6.8
313.15 K	438.8 ± 6.8
318.15 K	441.4 ± 6.8
323.15 K	444 ± 6.9

CCCCCCn1cc[n+](C)c1.F[B-](F)(F)F [1-hexyl-3-methylimidazolium tetrafluoroborate] + CO
molar heat capacity at constant pressure [J/K/mol], [2]
Settings	283.15 K	288.15 K	293.15 K	298.15 K	303.15 K	308.15 K	313.15 K	318.15 K	323.15 K
x1 = 0.0751	108 ± 1.7	108.7 ± 1.7	109.5 ± 1.7	110.3 ± 1.7	111.2 ± 1.7	112.2 ± 1.7	113.2 ± 1.8	114.2 ± 1.8	115.3 ± 1.8
x1 = 0.1511	135.5 ± 2.1	136.4 ± 2.1	137.4 ± 2.1	138.3 ± 2.1	139.3 ± 2.2	140.3 ± 2.2	141.3 ± 2.2	142.4 ± 2.2	143.4 ± 2.2
x1 = 0.2973	187.2 ± 2.9	188.1 ± 2.9	188.9 ± 2.9	189.9 ± 2.9	190.8 ± 3	191.8 ± 3	192.9 ± 3	193.9 ± 3	195.1 ± 3
x1 = 0.397	220.7 ± 3.4	221.7 ± 3.4	222.8 ± 3.5	223.9 ± 3.5	225.1 ± 3.5	226.3 ± 3.5	227.5 ± 3.5	228.8 ± 3.5	230.1 ± 3.6
x1 = 0.6423	301.9 ± 4.7	303.6 ± 4.7	305.3 ± 4.7	307 ± 4.8	308.7 ± 4.8	310.5 ± 4.8	312.3 ± 4.8	314.1 ± 4.9	315.9 ± 4.9
x1 = 0.8759	380.4 ± 5.9	382.7 ± 5.9	385 ± 6	387.4 ± 6	389.7 ± 6	392.1 ± 6.1	394.5 ± 6.1	396.9 ± 6.1	399.3 ± 6.2
x1 = 1	423.2 ± 6.6	425.8 ± 6.6	428.4 ± 6.6	431 ± 6.7	433.6 ± 6.7	436.2 ± 6.8	438.8 ± 6.8	441.4 ± 6.8	444 ± 6.9

CCCCCCCC[n+]1ccn(C)c1.F[B-](F)(F)F [1-methyl-3-octylimidazolium tetrafluoroborate]
[1]
Settings	molar heat capacity at constant pressure [J/K/mol]
283.15 K	490.1 ± 7.6
288.15 K	493.2 ± 7.6
293.15 K	496.3 ± 7.7
298.15 K	499.4 ± 7.7
303.15 K	502.5 ± 7.8
308.15 K	505.4 ± 7.8
313.15 K	508.4 ± 7.9
318.15 K	511.3 ± 7.9
323.15 K	514.2 ± 8

CCCCCCCC[n+]1ccn(C)c1.F[B-](F)(F)F [1-methyl-3-octylimidazolium tetrafluoroborate] + CO
molar heat capacity at constant pressure [J/K/mol], [2]
Settings	283.15 K	288.15 K	293.15 K	298.15 K	303.15 K	308.15 K	313.15 K	318.15 K	323.15 K
x1 = 0.0736	111.8 ± 1.7	112.7 ± 1.7	113.6 ± 1.8	114.6 ± 1.8	115.6 ± 1.8	116.6 ± 1.8	117.7 ± 1.8	118.9 ± 1.8	120.1 ± 1.9
x1 = 0.1652	151.5 ± 2.3	152.6 ± 2.4	153.7 ± 2.4	154.7 ± 2.4	155.9 ± 2.4	157 ± 2.4	158.1 ± 2.4	159.3 ± 2.5	160.4 ± 2.5
x1 = 0.3441	226.4 ± 3.5	227.4 ± 3.5	228.5 ± 3.5	229.6 ± 3.6	230.8 ± 3.6	232.1 ± 3.6	233.5 ± 3.6	235 ± 3.6	236.6 ± 3.7
x1 = 0.4516	269.5 ± 4.2	270.8 ± 4.2	272.1 ± 4.2	273.5 ± 4.2	275 ± 4.3	276.6 ± 4.3	278.2 ± 4.3	279.9 ± 4.3	281.6 ± 4.4
x1 = 0.6526	349.3 ± 5.4	351.3 ± 5.4	353.3 ± 5.5	355.3 ± 5.5	357.4 ± 5.5	359.6 ± 5.6	361.8 ± 5.6	364 ± 5.6	366.4 ± 5.7
x1 = 0.8472	427.6 ± 6.6	430.3 ± 6.7	433 ± 6.7	435.7 ± 6.8	438.4 ± 6.8	441.1 ± 6.8	443.7 ± 6.9	446.3 ± 6.9	448.9 ± 7
x1 = 1	490.1 ± 7.6	493.2 ± 7.6	496.3 ± 7.7	499.4 ± 7.7	502.5 ± 7.8	505.4 ± 7.8	508.4 ± 7.9	511.3 ± 7.9	514.2 ± 8

CO [methanol]
[1]
Settings	molar heat capacity at constant pressure [J/K/mol]
283.15 K	78.6 ± 1.2
288.15 K	79.5 ± 1.2
293.15 K	80.4 ± 1.2
298.15 K	81.3 ± 1.3
303.15 K	82.3 ± 1.3
308.15 K	83.4 ± 1.3
313.15 K	84.5 ± 1.3
318.15 K	85.7 ± 1.3
323.15 K	87 ± 1.3

CO [methanol] + CCCCCCCC[n+]1ccn(C)c1.F[B-](F)(F)F
[2], x2 = 0
Settings	molar heat capacity at constant pressure [J/K/mol]
283.15 K	78.6 ± 1.2
288.15 K	79.5 ± 1.2
293.15 K	80.4 ± 1.2
298.15 K	81.3 ± 1.3
303.15 K	82.3 ± 1.3
308.15 K	83.4 ± 1.3
313.15 K	84.5 ± 1.3
318.15 K	85.7 ± 1.3
323.15 K	87 ± 1.3

CO [methanol] + CCCCCCn1cc[n+](C)c1.F[B-](F)(F)F
[2], x2 = 0
Settings	molar heat capacity at constant pressure [J/K/mol]
283.15 K	78.6 ± 1.2
288.15 K	79.5 ± 1.2
293.15 K	80.4 ± 1.2
298.15 K	81.3 ± 1.3
303.15 K	82.3 ± 1.3
308.15 K	83.4 ± 1.3
313.15 K	84.5 ± 1.3
318.15 K	85.7 ± 1.3
323.15 K	87 ± 1.3

From the NIST ThermoML archive (doi:10.1016/j.jct.2007.07.001)
